Patent publication US20220259172A1, “CHEMICAL INHIBITORS OF ID PROTEINS FOR THE TREATMENT OF CANCER AND OTHER DISEASES” (Universität Heidelberg, priority 2019, published 2022)
Entries after “also recorded” stand apart in the source; their conditions may differ.

Assays:
B16-F10 melanoma cells = assay: Tumor growth and initiation in vivo, B16-F10; parameters: species or system mice
Description: B16-F10 (A) or Ret (B) cells were co-injected with Matrigel into syngeneic mice. […] Numbers indicate the number of animals with a tumor in each group. Bar graphs show the mean tumor volume in each group at the day when the first animal had reached the legal tumor size limit. Kaplan-Meier curves show the percentage of tumor-free animals in percent as a measure for tumor initiation.
Cells were harvested using trypsin/EDTA and washed in PBS. The indicated numbers of living melanoma cells were subcutaneously injected into the flank of syngeneic mice in 100 μl PBS. For co-injection experiments, the indicated number of living cells was resuspended in 100 μl Matrigel HC (10 mg/ml, #354262, Corning Inc.), and subcutaneously injected into the flank. Tumor volume was calculated using the formula 4/3π (d1/2×d2/2×d3/2), where d1−d3 represents the diameter of the tumor in three dimensions. […] All animal experiments were approved by the local authorities, and performed according to the German legal requirements. Tumor initiating cell (TIC) frequency and p-values were calculated using ELDA software.
To investigate the anti-tumor properties of the selected Id1/Id3-inhibiting compounds, groups of experimental mice (8 per group) were injected subcutaneously with B16-F10 or Ret melanoma cells. […] Melanoma initiation and growth was assessed over a period of 90 days.

Id3 [1] = assay: Id3 expression in LECs, Western blot; format: cell-based; details: indicated concentrations, 24 hours (FIG. 10B)
Procedure: (§1) Human umbilical vein endothelial cells (HUVECs) and lymphatic endothelial cells (LECs) were cultivated in EBM™-2 Endothelial Cell Growth Basal Medium supplemented with EGM™-2 MV Microvascular Endothelial Cell Growth Medium-2 SingleQuots™ Kit (both Lonza, catalogue numbers CC-3156 and CC4176, respectively), hereafter referred to as endothelial cell growth medium. HUVECs and LECs were cultivated in the presence of the indicated concentrations of X6632, or with DMSO as a solvent control. After 24 hours, cells were harvested. Lysates were western blotted and probed with antibodies against Id1 and Id3. Western blots probed with vinculin antibodies served as loading controls.
(§2) Western blot analysis was performed using standard methods. The following antibodies were used for protein detection: Id1 (195-14, CalBioreagents), Id3 (17-3, CalBioreagents), β-actin (AC-15, Sigma Aldrich), Vinculin (VIN-11-5, Sigma Aldrich). Protein bands were detected using HRP conjugated secondary antibodies (P0447, P0448, Agilent Technologies) and enhanced chemiluminescence (32106, Thermo Fisher Scientific).
(§3) The effect of X6632 on Id1 and Id3 expression in cultivated proliferating human umbilical vein endothelial cells (HUVECs) was investigated. […] LDN-193189, an antagonist of BMP receptor isotypes ALK2 and ALK3, served as a positive control reference for inhibition of Id1 and Id3 expression.

Id3 [2] = assay: Id3 expression in HUVECs, Western blot; format: cell-based, Human
Procedure: as §1, §2, §3

Id1 [3] = assay: Id1 expression in HUVECs, Western blot; format: cell-based, Human
Procedure: as §1, §2, §3

HUVECs = assay: HUVEC proliferation, CyQUANT assay; format: cell-based, Human; details: dose-dependent manner (FIG. 11)
Procedure: (§4) HUVECs (A) and LECs (B) were cultivated in endothelial cell growth medium. Cells were incubated with the indicated concentrations of X6632. Incubation with DMSO served as a solvent control. After cultivation for the indicated time periods, cells were stained with a CyQUANT™ Cell Proliferation Assay Kit (Thermo Fisher Scientific). The CyQUANT™ dye emits fluorescence after excitation at 485 nm when incorporated in double-stranded DNA, allowing DNA content to be used as a measure of cell numbers. Plates were incubated for 15 min at 37° C. to allow the CyQUANT™ dye to incorporate into DNA. Fluorescence was measured by excitation at 485 nm and detection of emission at 530 nm at 25 positions in each well (signal intensity) using a Tecan Infinite M200 reader.

Id1 [4] = assay: Compound screen: BMP4-induced Id1 expression, Western blot; format: cell-based, murine; details: B16-F10 and Ret cells, BMP4 10 ng/ml and compound simultaneously, 24 h, rated relative to CBD
Procedure: To screen compounds with an inhibitory effect on Id1 and Id3 expression, cells were simultaneously stimulated with BMP4 (10 ng/ml, 315-27, Peprotech) and substances at the indicated concentrations for 24 h. DMSO served as a solvent control. Effects on Id1 and Id3 expression levels were analysed by Western blotting.
as §2
B16-F10 and Ret melanoma cells were treated with BMP4 to induce Id1 and Id3 expression, and simultaneously treated with each of the compounds individually for a 24 h period.

LECs = assay: LEC proliferation, CyQUANT assay; format: cell-based; details: dose-dependent manner (FIG. 11)
Procedure: as §4

Id1 [5] = assay: Id1 expression in LECs, Western blot; format: cell-based; details: indicated concentrations, 24 hours (FIG. 10B)
Procedure: as §1, §2, §3

[6] = tested on: mouse embryonic fibroblasts (MEFs); assay: Proliferation/cytotoxicity in mouse embryonic fibroblasts, 2D culture; format: cell-based
[7] = HUVECs, indicated concentrations, 24 hours (FIG. 10B)
[8] = proliferating HUVECs, 24 hours (FIG. 10A)

SMILES: CCCCc1cc2c(O)cc(C3(CCCC)CCCCC3)cc2oc1=O [X6632, 7-(1-Butylcyclohexyl)-5-hydroxy-3-butyl-2H-chromen-2-one]
- Melanoma growth and initiation (B16-F10 melanoma cells; B16-F10 cells co-injected with Matrigel, syngeneic mice, daily i.p. first 14 days, compared to DMSO): significantly inhibit; also recorded: potent inhibitors
- Number of animals with tumors (B16-F10 melanoma cells; B16-F10 cells, 8 mice per group, assessed over 90 days): three
- Tumor growth and initiation compared to CBD (B16-F10 melanoma cells; B16-F10 experiment, daily i.p. first 14 days): significantly more effective
- Expression of Id3 protein (Id3 [1]): inhibits
- Expression of Id3 protein (Id3 [2]; [7]): inhibits
- Id3 protein expression (Id3 [2]; [8]): completely abrogated
- Expression of Id1 protein (Id1 [3]; [7]): inhibits
- Id1 protein expression (Id1 [3]; [8]): completely abrogated
- Proliferation of HUVECs (HUVECs): inhibited
- Inhibitory effect on Id1 protein expression (Id1 [4]): more potent
- Inhibitory effect on Id1 protein expression (Id1 [4]; listed as X 6632): strongest inhibitory activities
- Proliferation of LECs (LECs): inhibited
- Expression of Id1 protein (Id1 [5]): inhibits
- Proliferation / cytotoxicity, non-transformed MEFs [6]: strongly inhibited
